The record followed here is patent US20240124417A1, “COMPOUNDS USEFUL AS IMMUNOMODULATORS” (Bristol-Myers Squibb Company, priority 2019, published 2024).

Usually IC50 stands for the midpoint of a concentration-inhibition curve. Higher therefore signals weaker potency.

The experiment has as its target T1, PD-1/PD-L1 (Homo sapiens, UniProt Q9NZQ7).
T1 construct: TVMV protease site linker (C); made in house; host or cells: HEK293T cells
Kind of experiment: PD-1/PD-L1 Homogenous Time-Resolved Fluorescence (HTRF) binding assay. The conditions noted are these: PD-L1-His 10 nM, PD-1-Ig 20 nM. In outline:
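Time-resolved FRET read-out using Eu-cryptate anti-Ig (1 nM final) and APC anti-His (20 nM final). Tagged extracellular domains were used in BSA/Tween-20-supplemented dPBS, with compound pre-incubated 15 min with PD-L1-His (10 nM) before PD-1-Ig (20 nM) was added for 15 min. Other human pairs: PD-L2-His 5 nM with PD-1-Ig 20 nM; PD-L1-Ig 10 nM with CD80-His 100 nM.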

T1 sequence (Q9NZQ7 18-239): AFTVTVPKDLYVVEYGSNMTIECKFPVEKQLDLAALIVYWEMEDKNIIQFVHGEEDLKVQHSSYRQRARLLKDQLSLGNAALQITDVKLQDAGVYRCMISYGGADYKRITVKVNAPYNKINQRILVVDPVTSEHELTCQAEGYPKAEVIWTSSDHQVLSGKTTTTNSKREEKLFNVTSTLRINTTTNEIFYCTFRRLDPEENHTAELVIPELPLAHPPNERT

With `Cc1c(COc2cc(OCc3cncc(C#N)c3)c(CNCc3ncco3)cc2Cl)cccc1-c1cccc(OCC2CCCN(C)C2)c1Cl` (stereo not drawn) [Example 2590, 5-((4-chloro-5-((2′-chloro-2-methyl-3′-((1-methylpiperidin-3-yl)methoxy)-[1,1′-biphenyl]-3-yl)methoxy)-2-(((oxazol-2-ylmethyl)amino)methyl)phenoxy)methyl)nicotinonitrile], the 50% inhibitory concentration (IC50) was determined as 2 nM. That is a single-digit nanomolar value.

`Cc1c(COc2cc(OCc3cncc(C#N)c3)c(CNCc3cnco3)cc2Cl)cccc1-c1cccc(OCC2CCCN(C)C2)c1Cl` (stereo not drawn) [Example 2591, 5-((4-chloro-5-((2′-chloro-2-methyl-3′-((1-methylpiperidin-3-yl)methoxy)-[1,1′-biphenyl]-3-yl)methoxy)-2-(((oxazol-5-ylmethyl)amino)methyl)phenoxy)methyl)nicotinonitrile] came in with a half-maximal inhibitory concentration (IC50) of 1.9 nM.

Compound `Cc1c(COc2cc(OCc3cncc(C#N)c3)c(CN3CCc4c(ncn4C)C3)cc2Cl)cccc1-c1cccc(OCC2CCCN(C)C2)c1Cl` (stereo not drawn) [Example 2592, 5-((4-chloro-5-((2′-chloro-2-methyl-3′-((1-methylpiperidin-3-yl)methoxy)-[1,1′-biphenyl]-3-yl)methoxy)-2-((1-methyl-1,4,6,7-tetrahydro-5H-imidazo[4,5-c]pyridin-5-yl)methyl)phenoxy)methyl)nicotinonitrile] displayed an IC50 of 3.6 nM.

`Cc1c(COc2cc(OCc3cncc(C#N)c3)c(CNCCc3nc4ccccc4[nH]3)cc2Cl)cccc1-c1cccc(OCC2CCCN(C)C2)c1Cl` (stereo not drawn) [Example 2593, 5-((2-(((2-(1H-benzo[d]imidazol-2-yl)ethyl)amino)methyl)-4-chloro-5-((2′-chloro-2-methyl-3′-((1-methylpiperidin-3-yl)methoxy)-[1,1′-biphenyl]-3-yl)methoxy)phenoxy)methyl)nicotinonitrile] displayed a half-inhibitory concentration (IC50) of 3 nM.

`Cc1ncsc1CCNCc1cc(Cl)c(OCc2cccc(-c3cccc(OCC4CCCN(C)C4)c3Cl)c2C)cc1OCc1cncc(C#N)c1` (stereo not drawn) [Example 2594, 5-((4-chloro-5-((2′-chloro-2-methyl-3′-((1-methylpiperidin-3-yl)methoxy)-[1,1′-biphenyl]-3-yl)methoxy)-2-(((2-(4-methylthiazol-5-yl)ethyl)amino)methyl)phenoxy)methyl)nicotinonitrile] came in with a half-inhibitory concentration (IC50) of 0.7 nM.

In turn, `COCc1noc(CNCc2cc(Cl)c(OCc3cccc(-c4cccc(OCC5CCCN(C)C5)c4Cl)c3C)cc2OCc2cncc(C#N)c2)n1` (stereo not drawn) [Example 2595, 5-((4-chloro-5-((2′-chloro-2-methyl-3′-((1-methylpiperidin-3-yl)methoxy)-[1,1′-biphenyl]-3-yl)methoxy)-2-((((3-(methoxymethyl)-1,2,4-oxadiazol-5-yl)methyl)amino)methyl)phenoxy)methyl)nicotinonitrile] showed an IC50 of 2 nM.

As for `Cc1c(COc2cc(OCc3cncc(C#N)c3)c(CNCc3cc(C)n(C)n3)cc2Cl)cccc1-c1cccc(OCC2CCCN(C)C2)c1Cl` (stereo not drawn) [Example 2596, 5-((4-chloro-5-((2′-chloro-2-methyl-3′-((1-methylpiperidin-3-yl)methoxy)-[1,1′-biphenyl]-3-yl)methoxy)-2-((((1,5-dimethyl-1H-pyrazol-3-yl)methyl)amino)methyl)phenoxy)methyl)nicotinonitrile], the IC50 was determined as 2.9 nM.

The compound `Cc1noc(C)c1CNCc1cc(Cl)c(OCc2cccc(-c3cccc(OCC4CCCN(C)C4)c3Cl)c2C)cc1OCc1cncc(C#N)c1` (stereo not drawn) [Example 2597, 5-((4-chloro-5-((2′-chloro-2-methyl-3′-((1-methylpiperidin-3-yl)methoxy)-[1,1′-biphenyl]-3-yl)methoxy)-2-((((3,5-dimethylisoxazol-4-yl)methyl)amino)methyl)phenoxy)methyl)nicotinonitrile] gave an IC50 of 2.9 nM.

The compound `Cc1c(COc2cc(OCc3cncc(C#N)c3)c(CNCCc3cscn3)cc2Cl)cccc1-c1cccc(OCC2CCCN(C)C2)c1Cl` (stereo not drawn) [Example 2598, 5-((4-chloro-5-((2′-chloro-2-methyl-3′-((1-methylpiperidin-3-yl)methoxy)-[1,1′-biphenyl]-3-yl)methoxy)-2-(((2-(thiazol-4-yl)ethyl)amino)methyl)phenoxy)methyl)nicotinonitrile] displayed an IC50 of 1 nM.

Consider `Cc1n[nH]c(C)c1CNCc1cc(Cl)c(OCc2cccc(-c3cccc(OCC4CCCN(C)C4)c3Cl)c2C)cc1OCc1cncc(C#N)c1` (stereo not drawn) [Example 2599, 5-((4-chloro-5-((2′-chloro-2-methyl-3′-((1-methylpiperidin-3-yl)methoxy)-[1,1′-biphenyl]-3-yl)methoxy)-2-((((3,5-dimethyl-1H-pyrazol-4-yl)methyl)amino)methyl)phenoxy)methyl)nicotinonitrile], for which the concentration for half-maximal inhibition (IC50) stood at 1.7 nM.

Compound `Cc1nc2c(s1)CN(Cc1cc(Cl)c(OCc3cccc(-c4cccc(OCC5CCCN(C)C5)c4Cl)c3C)cc1OCc1cncc(C#N)c1)CC2` (stereo not drawn) [Example 2600, 5-((4-chloro-5-((2′-chloro-2-methyl-3′-((1-methylpiperidin-3-yl)methoxy)-[1,1′-biphenyl]-3-yl)methoxy)-2-((2-methyl-6,7-dihydrothiazolo[5,4-c]pyridin-5(4H)-yl)methyl)phenoxy)methyl)nicotinonitrile] yielded an IC50 of 7.2 nM.

As for `Cc1c(COc2cc(OCc3cncc(C#N)c3)c(CNC3CCc4[nH]ncc4C3)cc2Cl)cccc1-c1cccc(OCC2CCCN(C)C2)c1Cl` (stereo not drawn) [Example 2601, 5-((4-chloro-5-((2′-chloro-2-methyl-3′-((1-methylpiperidin-3-yl)methoxy)-[1,1′-biphenyl]-3-yl)methoxy)-2-(((4,5,6,7-tetrahydro-1H-indazol-5-yl)amino)methyl)phenoxy)methyl)nicotinonitrile], the concentration for half-maximal inhibition (IC50) amounted to 0.6 nM.

`Cc1c(COc2cc(OCc3cncc(C#N)c3)c(CNCc3cc4ccccn4n3)cc2Cl)cccc1-c1cccc(OCC2CCCN(C)C2)c1Cl` (stereo not drawn) [Example 2602, 5-((4-chloro-5-((2′-chloro-2-methyl-3′-((1-methylpiperidin-3-yl)methoxy)-[1,1′-biphenyl]-3-yl)methoxy)-2-(((pyrazolo[1,5-a]pyridin-2-ylmethyl)amino)methyl)phenoxy)methyl)nicotinonitrile] came in with a concentration for half-maximal inhibition (IC50) of 1.6 nM. Compared with the last compound, the IC50 is about 2.7-fold higher.

In the case of `Cc1nc(CNCc2cc(Cl)c(OCc3cccc(-c4cccc(OCC5CCCN(C)C5)c4Cl)c3C)cc2OCc2cncc(C#N)c2)no1` (stereo not drawn) [Example 2603, 5-((4-chloro-5-((2′-chloro-2-methyl-3′-((1-methylpiperidin-3-yl)methoxy)-[1,1′-biphenyl]-3-yl)methoxy)-2-((((5-methyl-1,2,4-oxadiazol-3-yl)methyl)amino)methyl)phenoxy)methyl)nicotinonitrile], the IC50 was determined as 0.9 nM.

In turn, `Cc1nnc(CNCc2cc(Cl)c(OCc3cccc(-c4cccc(OCC5CCCN(C)C5)c4Cl)c3C)cc2OCc2cncc(C#N)c2)[nH]1` (stereo not drawn) [Example 2604, 5-((4-chloro-5-((2′-chloro-2-methyl-3′-((1-methylpiperidin-3-yl)methoxy)-[1,1′-biphenyl]-3-yl)methoxy)-2-((((5-methyl-4H-1,2,4-triazol-3-yl)methyl)amino)methyl)phenoxy)methyl)nicotinonitrile] gave a concentration for half-maximal inhibition (IC50) of 2.3 nM.

`Cc1c(COc2cc(OCc3cncc(C#N)c3)c(CNCCc3nc4ccccc4n3C)cc2Cl)cccc1-c1cccc(OCC2CCCN(C)C2)c1Cl` (stereo not drawn) [Example 2605, 5-((4-chloro-5-((2′-chloro-2-methyl-3′-((1-methylpiperidin-3-yl)methoxy)-[1,1′-biphenyl]-3-yl)methoxy)-2-(((2-(1-methyl-1H-benzo[d]imidazol-2-yl)ethyl)amino)methyl)phenoxy)methyl)nicotinonitrile] had a half-inhibitory concentration (IC50) of 0.6 nM.

As to `Cc1c(COc2cc(OCc3cncc(C#N)c3)c(CNCc3ccc4cc[nH]c4c3)cc2Cl)cccc1-c1cccc(OCC2CCCN(C)C2)c1Cl` (stereo not drawn) [Example 2606, 5-((2-((((1H-indol-6-yl)methyl)amino)methyl)-4-chloro-5-((2′-chloro-2-methyl-3′-((1-methylpiperidin-3-yl)methoxy)-[1,1′-biphenyl]-3-yl)methoxy)phenoxy)methyl)nicotinonitrile], the half-maximal inhibitory concentration (IC50) worked out at 1.4 nM.

`Cc1c(COc2cc(OCc3cncc(C#N)c3)c(CNCc3cc(C4CC4)on3)cc2Cl)cccc1-c1cccc(OCC2CCCN(C)C2)c1Cl` (stereo not drawn) [Example 2607, 5-((4-chloro-5-((2′-chloro-2-methyl-3′-((1-methylpiperidin-3-yl)methoxy)-[1,1′-biphenyl]-3-yl)methoxy)-2-((((5-cyclopropylisoxazol-3-yl)methyl)amino)methyl)phenoxy)methyl)nicotinonitrile]: the IC50 amounted to 4.2 nM.

For the compound `Cc1c(COc2cc(OCc3cncc(C#N)c3)c(CN3CCC(c4cc[nH]n4)C3)cc2Cl)cccc1-c1cccc(OCC2CCCN(C)C2)c1Cl` (stereo not drawn) [Example 2608, 5-((2-((3-(1H-pyrazol-3-yl)pyrrolidin-1-yl)methyl)-4-chloro-5-((2′-chloro-2-methyl-3′-((1-methylpiperidin-3-yl)methoxy)-[1,1′-biphenyl]-3-yl)methoxy)phenoxy)methyl)nicotinonitrile], the IC50 stood at 2.3 nM.

In the case of `Cc1nc2ccc(CNCc3cc(Cl)c(OCc4cccc(-c5cccc(OCC6CCCN(C)C6)c5Cl)c4C)cc3OCc3cncc(C#N)c3)cc2[nH]1` (stereo not drawn) [Example 2609, 5-((4-chloro-5-((2′-chloro-2-methyl-3′-((1-methylpiperidin-3-yl)methoxy)-[1,1′-biphenyl]-3-yl)methoxy)-2-((((2-methyl-1H-benzo[d]imidazol-6-yl)methyl)amino)methyl)phenoxy)methyl)nicotinonitrile], the IC50 amounted to 1.1 nM.

Compound `Cc1c(COc2cc(OCc3cncc(C#N)c3)c(CNCc3ccc4c(N)n[nH]c4c3)cc2Cl)cccc1-c1cccc(OCC2CCCN(C)C2)c1Cl` (stereo not drawn) [Example 2610, 5-((2-((((3-amino-1H-indazol-6-yl)methyl)amino)methyl)-4-chloro-5-((2′-chloro-2-methyl-3′-((1-methylpiperidin-3-yl)methoxy)-[1,1′-biphenyl]-3-yl)methoxy)phenoxy)methyl)nicotinonitrile] gave an IC50 of 0.8 nM. The IC50 values of the last two compounds are within 1.5-fold of each other.
